In PMC8393646, “Metformin Is a Pyridoxal-5′-phosphate (PLP)-Competitive Inhibitor of SHMT2” (Cancers, 2021):
Structures can show the parent of a compound that is named as a salt.

Experiments:
[1] = target: T1, SHMT1 (cytosolic serine hydroxymethyltransferase) (Homo sapiens, UniProt P34896); experiment: spectrophotometric quinonoid-intermediate assay ([…] nm) with purified recombinant enzyme; type: biochemical
T1 sequence (P34896 2-483): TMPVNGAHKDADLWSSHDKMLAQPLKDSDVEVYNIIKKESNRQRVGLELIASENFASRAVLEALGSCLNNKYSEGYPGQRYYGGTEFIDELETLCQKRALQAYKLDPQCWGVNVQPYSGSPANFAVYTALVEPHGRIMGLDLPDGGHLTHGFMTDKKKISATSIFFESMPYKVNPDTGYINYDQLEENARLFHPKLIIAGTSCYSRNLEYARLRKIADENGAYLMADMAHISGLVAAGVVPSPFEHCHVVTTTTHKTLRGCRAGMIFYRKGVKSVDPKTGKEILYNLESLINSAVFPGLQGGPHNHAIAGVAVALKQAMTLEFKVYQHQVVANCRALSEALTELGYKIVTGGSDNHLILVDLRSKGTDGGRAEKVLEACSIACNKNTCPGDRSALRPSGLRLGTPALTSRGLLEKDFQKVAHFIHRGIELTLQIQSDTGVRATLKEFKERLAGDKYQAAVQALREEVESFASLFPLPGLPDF

[2] = target: T2, SHMT2 (mitochondrial serine hydroxymethyltransferase) (Homo sapiens, UniProt P34897); experiment: spectrophotometric quinonoid-intermediate assay ([…] nm) with purified recombinant enzyme, mixed-type inhibition fit; supported by DSF; type: biochemical
T2 sequence (P34897 30-504): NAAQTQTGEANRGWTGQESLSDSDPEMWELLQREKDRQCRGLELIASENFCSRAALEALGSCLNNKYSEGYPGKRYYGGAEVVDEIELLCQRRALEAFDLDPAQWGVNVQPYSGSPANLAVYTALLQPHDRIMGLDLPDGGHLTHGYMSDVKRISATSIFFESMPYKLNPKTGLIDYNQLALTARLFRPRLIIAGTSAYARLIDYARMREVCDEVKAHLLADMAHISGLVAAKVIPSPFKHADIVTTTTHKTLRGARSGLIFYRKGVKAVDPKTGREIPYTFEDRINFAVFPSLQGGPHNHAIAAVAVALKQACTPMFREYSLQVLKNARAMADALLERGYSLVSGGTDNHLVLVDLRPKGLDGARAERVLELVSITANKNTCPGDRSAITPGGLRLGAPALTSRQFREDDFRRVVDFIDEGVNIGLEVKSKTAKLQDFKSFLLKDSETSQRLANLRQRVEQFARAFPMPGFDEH

[3] = target: T2, SHMT2 (mitochondrial serine hydroxymethyltransferase); experiment: DSF titration of apo-enzyme with PLP (Tm vs concentration); type: binding; set-up: apo-SHMT2

Row | Ki [1] [mM] | Ki [2] [mM] | Kd [3] [mM] | Structure (SMILES)
1 | 100 ± 33 | 13.3 ± 2.1 |  | CN(C)C(=N)N=C(N)N [MET, 1,1-dimethylbiguanide hydrochloride]
2 |  |  | 0.0003 | Cc1ncc(COP(=O)(O)O)c(C=O)c1O [PLP, pyridoxal-5′-phosphate]
